Series [1] in a line: Oral pharmacokinetics in rats: plasma concentration of active nnRTI after gavage of prodrug or parent (Example 8). The format is in vivo. Conditions: parent compound dosed p.o. at 50 mg/kg; for Cmax: rat, plasma, po, read-out: Cmax (peak concentration of active nnRTI) (converted). Here is the method:
dose equivalent to (0.127 mmol) was administered orally by gavage. A blood sample (0.3 mL) was collected from the […] at 0.5, 1, 2, 3, 4, 6 and 8 hours after via the jugular cannula. A sample of at least 0.3 mL of blood was withdrawn from the untreated animals 3 h after dosing. After 24 h from dosing, as much blood as possible was collected from all treated and control animals. Potassium oxalate/NaF was added to the samples which were stored on ice during sampling procedure. The samples were spun in a refrigerated centrifuge at […] as soon as possible and the plasma samples were stored −20° C. immediately after centrifugation amd later transferred to a −80° C. freezer until analysis. The concentration of test compound was determined by hplc.

Counter-ions that a name gives are not always drawn.

As to `Cc1cc(Cc2ccc(Cl)c(Oc3cc(C#N)cc(C#N)c3)c2F)nn(COC(=O)[C@@H](N)C(C)C)c1=O` (as salt: hydrochloride) [Compound I-5, (S)-1-{3-[4-Chloro-3-(3,5-dicyano-phenoxy)-2-fluoro-benzyl]-5-methyl-6-oxo-6H-pyridazin-1-ylmethoxycarbonyl}-2-methyl-propyl-ammonium; chloride], the melting point is 176.7 to 178.3 °C.
Same read-out and setting: to `Cc1cc(Cc2ccc(Cl)c(Oc3cc(C#N)cc(C#N)c3)c2F)nn(CO)c1=O` [Compound I-1, 5-[6-Chloro-2-fluoro-3-(1-hydroxymethyl-5-methyl-6-oxo-1,6-dihydro-pyridazin-3-ylmethyl)-phenoxyl]-isophthalonitrile] belongs 172 to 179 °C; to `Cc1cc(Cc2ccc(Cl)c(Oc3cc(C#N)cc(C#N)c3)c2F)nn(COC(=O)OCCN(C)C)c1=O` (as salt: HCl) [Compound I-18, Carbonic acid 3-[4-chloro-3-(3,5-dicyano-phenoxy)-2-fluoro-benzyl]-5-methyl-6-oxo-6H-pyridazin-1-ylmethyl ester 2-dimethylamino-ethyl ester], 75 to 90 °C.
As for `Cc1cc(Cc2ccc(Cl)c(Oc3cc(C#N)cc(C#N)c3)c2F)nn(COC(=O)CCC(=O)O)c1=O` [Compound I-8, Succinic acid mono-{3-[4-chloro-3-(3,5-dicyano-phenoxy)-2-fluoro-benzyl]-5-methyl-6-oxo-6H-pyridazin-1-ylmethyl}ester], the melting point was in the range of 167 to 171.5 °C.
Still for that read-out and setting: to `N#Cc1cc(F)cc(Oc2c(Cl)ccc(Cc3ccc(=O)n(CO)n3)c2F)c1` [Compound I-29] belongs 100.5 to 103.8 °C; to `Cc1cc(Cc2ccc(Cl)c(Oc3cc(C#N)cc(C(F)F)c3)c2F)nn(COC(=O)CCC(=O)O)c1=O` [Compound I-28, Succinic acid mono-{3-[4-chloro-3-(3-cyano-5-difluoromethyl-phenoxy)-2-fluoro-benzyl]-5-methyl-6-oxo-6H-pyridazin-1-ylmethyl}ester], 154.3 to 156.9 °C; to `N#Cc1cc(F)cc(Oc2c(Cl)ccc(Cc3ccc(=O)n(COC(=O)CCC(=O)O)n3)c2F)c1` [Compound I-30, Succinic acid mono-{3-[4-chloro-3-(3-cyano-5-fluoro-phenoxy)-2-fluoro-benzyl]-6-oxo-6H-pyridazin-1-ylmethyl}ester], 133.9 to 137 °C.
Turning to `Cc1cc(Cc2ccc(Cl)c(Oc3cc(C#N)cc(C(F)F)c3)c2F)nn(CO)c1=O` [Compound I-27], the melting point was in the range of 113.9 to 117.3 °C.
`Cc1cc(Cc2ccc(Cl)c(Oc3cc(Cl)cc(C#N)c3)c2F)n[nH]c1=O` [Compound 11, 3-chloro-5-[6-chloro-2-fluoro-3-(5-methyl-6-oxo-1,6-dihydro-pyridazin-3-ylmethyl)-phenoxy]-benzonitrile]: in series [1], the “AUC (total amount of active nnRTI absorbed)” value was 30000 ng·h/mL and the Cmax was 2300 ng/mL.
In turn, `Cc1cc(Cc2ccc(Cl)c(Oc3cc(C#N)cc(C#N)c3)c2F)nn(COP(=O)(O)O)c1=O` (as salt: sodium) (hydrate or solvate) [Compound I-23, Phosphoric acid mono-{3-[4-chloro-3-(3,5-dicyano-phenoxy)-2-fluoro-benzyl]-5-methyl-6-oxo-6H-pyridazin-1-ylmethyl}ester disodium salt] had a melting point of 193.7 to 197.2 °C.
`Cc1cc(Cc2ccc(Cl)c(Oc3cc(C#N)cc(C#N)c3)c2F)n[nH]c1=O` [Compound 10, 5-[6-chloro-2-fluoro-3-(5-methyl-6-oxo-1,6-dihydro-pyridazin-3-ylmethyl)-phenoxy]-isophthalonitrile]: in series [1], the “AUC (total amount of active nnRTI absorbed)” value worked out at 8100 ng·h/mL and the Cmax is 600 ng/mL.

A word on the melting point: it is the temperature, or range, at which the solid turns liquid.

The values are drawn from patent US7288542B2, “Non-nucleoside reverse transcriptase inhibitors” (Roche Palo Alto LLC, priority 2004, dated 2007).
